In PMC4119572 (Clinical cancer research : an official journal of the …, 2014):
pKi: −log10 of the molar value.

Experiments:
Type in all cases: cell-based
OCT2 [1] = biological target: T1, OCT2 (Homo sapiens, UniProt O15244); test: […]TEA uptake in OCT2-transfected HEK293 cells
T1 sequence (O15244 1-555): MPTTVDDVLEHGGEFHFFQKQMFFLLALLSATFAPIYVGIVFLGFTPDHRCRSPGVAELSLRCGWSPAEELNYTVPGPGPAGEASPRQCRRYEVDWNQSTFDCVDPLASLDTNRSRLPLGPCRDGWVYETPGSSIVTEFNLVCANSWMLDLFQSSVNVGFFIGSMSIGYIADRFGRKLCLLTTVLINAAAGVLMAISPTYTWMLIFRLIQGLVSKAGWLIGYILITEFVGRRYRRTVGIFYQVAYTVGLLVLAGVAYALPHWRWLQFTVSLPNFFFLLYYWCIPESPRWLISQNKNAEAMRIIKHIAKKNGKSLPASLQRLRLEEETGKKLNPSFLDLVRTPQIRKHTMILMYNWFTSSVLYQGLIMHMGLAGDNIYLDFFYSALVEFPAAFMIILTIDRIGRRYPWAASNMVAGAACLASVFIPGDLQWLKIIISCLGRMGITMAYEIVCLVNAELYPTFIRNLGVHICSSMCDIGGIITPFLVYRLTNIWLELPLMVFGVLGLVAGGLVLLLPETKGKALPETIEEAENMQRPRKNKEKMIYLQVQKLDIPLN

mouse Oct2 = biological target: T2, mouse Oct2 (Mus musculus, UniProt O70577); test: TEA and ASP+ uptake inhibition in mOct2-transfected HEK293 cells
T2 sequence (O70577 1-553): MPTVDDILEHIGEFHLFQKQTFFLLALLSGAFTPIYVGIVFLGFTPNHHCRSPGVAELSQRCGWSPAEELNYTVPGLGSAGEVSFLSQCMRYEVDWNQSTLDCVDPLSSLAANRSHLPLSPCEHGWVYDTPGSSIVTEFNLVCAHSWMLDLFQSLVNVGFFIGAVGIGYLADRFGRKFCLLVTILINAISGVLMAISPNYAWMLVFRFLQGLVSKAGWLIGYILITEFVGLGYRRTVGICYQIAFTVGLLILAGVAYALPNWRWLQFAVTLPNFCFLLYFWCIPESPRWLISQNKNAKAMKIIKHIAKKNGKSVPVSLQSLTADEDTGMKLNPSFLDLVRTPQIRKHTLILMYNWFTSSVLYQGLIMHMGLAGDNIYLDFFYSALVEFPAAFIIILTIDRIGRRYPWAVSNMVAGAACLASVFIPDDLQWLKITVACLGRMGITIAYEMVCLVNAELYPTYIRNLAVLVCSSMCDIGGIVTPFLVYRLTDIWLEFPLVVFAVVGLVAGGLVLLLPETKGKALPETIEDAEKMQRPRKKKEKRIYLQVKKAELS

OCT2 [2] = biological target: T1, OCT2; test: […]TEA uptake inhibition in OCT2-transfected HEK293 cells, Dixon plot
mouse Oct1 = biological target: T3, mouse Oct1 (Mus musculus, UniProt O08966); test: TEA and ASP+ uptake inhibition in mOct1-transfected HEK293 cells
T3 sequence (O08966 1-556): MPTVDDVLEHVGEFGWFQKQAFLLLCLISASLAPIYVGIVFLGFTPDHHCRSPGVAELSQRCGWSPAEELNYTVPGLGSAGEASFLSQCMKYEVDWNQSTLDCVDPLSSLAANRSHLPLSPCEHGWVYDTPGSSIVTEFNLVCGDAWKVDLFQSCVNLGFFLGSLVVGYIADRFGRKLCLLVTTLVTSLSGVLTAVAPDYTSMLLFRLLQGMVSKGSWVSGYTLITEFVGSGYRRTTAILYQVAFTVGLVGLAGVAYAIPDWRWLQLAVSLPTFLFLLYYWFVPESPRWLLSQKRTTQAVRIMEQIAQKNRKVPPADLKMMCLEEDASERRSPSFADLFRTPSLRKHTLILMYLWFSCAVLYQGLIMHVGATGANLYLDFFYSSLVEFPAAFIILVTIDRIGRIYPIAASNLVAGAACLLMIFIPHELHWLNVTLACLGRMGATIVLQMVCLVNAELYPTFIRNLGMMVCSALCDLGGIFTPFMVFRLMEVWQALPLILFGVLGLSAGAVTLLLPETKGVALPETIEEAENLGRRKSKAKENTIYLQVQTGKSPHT

For CC[N+](CC)(CC)CC [tetraethylammonium], the “[14C]TEA uptake in OCT2-transfected HEK293 cells” value (OCT2 [1]) was “kinetic analyses were performed with and without pifithrin-α using varying concentrations of TEA as the OCT2 substrate”.
For Cc1ccc(C(=O)Cn2c3c(sc2=N)CCCC3)cc1 [pifithrin-α], the “TEA and ASP+ uptake inhibition in mOct2-transfected HEK293 cells” value (mouse Oct2) was “pifithrin-α reduced uptake of TEA in Oct1 and Oct2 overexpressing HEK293 cells (Fig. 5A)”, the pKi (OCT2 [2]) was 5.52 and the “TEA and ASP+ uptake inhibition in mOct1-transfected HEK293 cells” value (mouse Oct1) was “pifithrin-α reduced uptake of TEA in Oct1 and Oct2 overexpressing HEK293 cells (Fig. 5A)”.
